Source: US12252524B2, “GIP/GLP1 co-agonist compounds” (Eli Lilly and Company, priority 2018, dated 2025)
Numbered stars: 1 amine (or outer) side, 2 acyl side, 3 side chain; on linkers, the order of the positions; unused ones are H or OH. Square brackets hold non-standard residues; d marks the D form. Side chains are listed from the residue outwards. Peptide text beside a SMILES is read from it. * marks the point of attachment. C20 diacid = O=C(O)CCCCCCCCCCCCCCCCCCC(=O)*; γGlu = O=C(O)[C@H](CCC(=O)[*:2])N[*:1]; Desaminotyrosyl = O=C(CCc1ccc(O)cc1)*; αMeF = C[C@](N)(Cc1ccccc1)C(=O)O; AEEA = NCCOCCOCC(=O)O; Aib = CC(C)(N)C(=O)O

Key:
[1] = target: T1, gastric inhibitory peptide receptor (GIPR) (Homo sapiens, UniProt P48546); assay: cAMP pharmacological functional assay in presence of casein, hGIPR; assay type: cell-based; settings: HEK293 cells expressing hGIPR, 0.1% Casein, geometric mean; read-out: hGIPR cAMP Rel EC50 nM (SEM, n)
T1 sequence (P48546 22-466): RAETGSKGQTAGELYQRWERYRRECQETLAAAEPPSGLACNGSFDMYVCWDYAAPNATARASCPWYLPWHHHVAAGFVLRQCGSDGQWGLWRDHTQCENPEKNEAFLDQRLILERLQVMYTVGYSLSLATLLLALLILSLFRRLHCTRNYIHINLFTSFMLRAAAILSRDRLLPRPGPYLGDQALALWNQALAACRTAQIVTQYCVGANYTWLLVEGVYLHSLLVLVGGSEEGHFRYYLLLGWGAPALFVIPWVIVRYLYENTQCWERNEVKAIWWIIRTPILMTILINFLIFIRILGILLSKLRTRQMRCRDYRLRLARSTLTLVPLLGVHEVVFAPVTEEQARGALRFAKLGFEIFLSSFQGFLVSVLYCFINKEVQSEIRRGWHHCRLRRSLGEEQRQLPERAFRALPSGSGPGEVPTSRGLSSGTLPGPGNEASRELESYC

human Gcg receptor = target: T2, human Gcg receptor (Homo sapiens, UniProt P47871); assay: [125I]-Glucagon binding (SPA), human Gcg receptor; settings: read-out: hGLcgR Ki, nM (SEM, n)
T2 construct: expressed in transfected cells; crude membranes
In short: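 Scintillation counts are taken after membranes and WGA beads incubate and settle for 12 hours at room temperature. Buffer is 25 mM HEPES, pH 7.4, with CaCl2, MgCl2, bacitracin and Tween-20. Ki values, from four-parameter IC50 fits, are geometric means over independent days.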

human GLP-1R = human GLP-1R (Homo sapiens, UniProt P43220); assay: [125I]-GLP-1 binding (SPA), human GLP-1 receptor; set-up: expressed in transfected cells; crude membranes; settings: read-out: hGLP1R Ki, (nM) (SEM, n)
In short: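 Membranes: hypotonic lysis (50 mM Tris HCl, pH 7.5, protease inhibitors), Potter-Elvehjem homogenization, high-speed pellet (35000×g 1 h or 25000×g 30 min, 4° C.). Buffer: 25 mM HEPES pH 7.4, 2.5 mM CaCl2, 1 mM MgCl2. Four-parameter IC50 fit; Ki as geometric mean ± SEM.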

[2] = target: human GLP-1 receptor (GLP-1R) (Homo sapiens, UniProt P43220); assay: cAMP pharmacological functional assay in presence of casein, hGLP-1R; assay type: cell-based; settings: HEK293 cells expressing hGLP-1R, 0.1% Casein, geometric mean; read-out: hGLP1R cAMP Rel EC50 nM (SEM, n)
human GIP receptor = target: T3, human GIP receptor (Homo sapiens, UniProt P48546); assay: [125I]-GIP binding (SPA), human GIP receptor; settings: read-out: hGIPR Ki, nM (SEM, n)
T3 construct: expressed in transfected cells; crude membranes
T3 sequence (P48546 22-466): T1 sequence (P48546 22-466)

T2 sequence (P47871 26-477): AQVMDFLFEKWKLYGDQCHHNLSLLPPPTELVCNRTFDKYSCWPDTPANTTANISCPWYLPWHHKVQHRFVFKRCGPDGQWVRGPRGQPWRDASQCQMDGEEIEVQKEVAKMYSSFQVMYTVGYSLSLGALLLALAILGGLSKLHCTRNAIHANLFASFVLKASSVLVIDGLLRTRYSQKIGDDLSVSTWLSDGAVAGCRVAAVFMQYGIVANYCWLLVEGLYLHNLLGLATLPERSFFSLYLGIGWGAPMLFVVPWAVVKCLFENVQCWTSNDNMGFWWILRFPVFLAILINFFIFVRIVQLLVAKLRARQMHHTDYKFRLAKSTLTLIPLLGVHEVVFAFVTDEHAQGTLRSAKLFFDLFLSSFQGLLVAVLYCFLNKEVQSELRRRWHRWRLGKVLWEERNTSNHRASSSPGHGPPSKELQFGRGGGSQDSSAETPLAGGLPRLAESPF
Sequence of human GLP-1 receptor (GLP-1R) (P43220 24-463): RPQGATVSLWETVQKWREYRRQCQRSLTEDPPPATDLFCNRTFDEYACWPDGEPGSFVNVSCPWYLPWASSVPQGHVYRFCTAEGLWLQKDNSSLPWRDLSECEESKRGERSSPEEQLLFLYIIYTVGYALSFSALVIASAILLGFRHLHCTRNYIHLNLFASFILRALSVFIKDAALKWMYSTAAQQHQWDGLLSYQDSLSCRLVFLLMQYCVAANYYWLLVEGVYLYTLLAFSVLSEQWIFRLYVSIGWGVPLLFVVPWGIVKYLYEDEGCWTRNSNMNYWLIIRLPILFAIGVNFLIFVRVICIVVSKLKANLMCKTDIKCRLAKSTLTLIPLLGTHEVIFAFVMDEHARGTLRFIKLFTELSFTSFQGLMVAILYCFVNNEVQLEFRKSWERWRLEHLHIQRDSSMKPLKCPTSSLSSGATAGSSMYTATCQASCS
Sequence of human GLP-1R (P43220 24-463): as above

Compound | EC50 [1] [nM] | Ki (human Gcg receptor) [nM] | Ki (human GLP-1R) [nM] | EC50 [2] [nM] | Ki (human GIP receptor) [nM]
CC[C@H](C)[C@H](NC(=O)[C@H](CC(C)C)NC(=O)[C@H](Cc1ccc(O)cc1)NC(=O)[C@H](CCC(=O)O)NC(=O)[C@@H](NC(=O)[C@H](Cc1ccccc1)NC(=O)[C@H](C)NC(=O)C(C)(C)NC(=O)[C@H](CCC(N)=O)NC(=O)[C@H](C)NC(=O)[C@H](CCCCNC(=O)COCCOCCNC(=O)COCCOCCNC(=O)CC[C@H](NC(=O)CCCCCCCCCCCCCCCCCCC(=O)O)C(=O)O)NC(=O)[C@H](CCCCN)NC(=O)[C@H](CC(=O)O)NC(=O)[C@H](CC(C)C)NC(=O)[C@H](CC(C)C)NC(=O)[C@@H](NC(=O)[C@H](CO)NC(=O)[C@H](Cc1c[nH]cn1)NC(=O)[C@H](CC(=O)O)NC(=O)[C@H](CO)NC(=O)[C@@H](NC(=O)[C@](C)(Cc1ccccc1)NC(=O)[C@@H](NC(=O)CNC(=O)[C@H](CCC(=O)O)NC(=O)C(C)(C)NC(=O)[C@@H](N)Cc1ccc(O)cc1)[C@@H](C)O)[C@@H](C)O)[C@@H](C)CC)[C@@H](C)CC)C(=O)N[C@@H](CCC(=O)O)C(=O)NCC(=O)NCC(=O)N1CCC[C@H]1C(=O)N[C@@H](CO)C(=O)N[C@@H](CO)C(=O)NCC(=O)N[C@@H](C)C(=O)N1CCC[C@H]1C(=O)N1CCC[C@H]1C(=O)N1CCC[C@H]1C(=O)N[C@@H](CO)C(N)=O [Example 128] (H-Y[Aib]EGT[αMeF]TSDHSILLDKK([AEEA-AEEA-γGlu-C20 diacid])AQ[Aib]AFIEYLIEGGPSSGAPPPS-NH2) | 0.0694 | 433 | 1.88 | 0.0924 | 0.0625
CC[C@H](C)[C@H](NC(=O)[C@H](CC(C)C)NC(=O)[C@H](Cc1ccc(O)cc1)NC(=O)[C@H](CCC(=O)O)NC(=O)[C@@H](NC(=O)[C@H](Cc1ccccc1)NC(=O)[C@H](C)NC(=O)C(C)(C)NC(=O)[C@H](CCC(N)=O)NC(=O)[C@H](C)NC(=O)[C@H](CCCCNC(=O)COCCOCCNC(=O)COCCOCCNC(=O)CC[C@H](NC(=O)CCCCCCCCCCCCCCCCCCC(=O)O)C(=O)O)NC(=O)[C@H](CCCCN)NC(=O)[C@H](CC(=O)O)NC(=O)[C@H](CC(C)C)NC(=O)[C@H](CC(C)C)NC(=O)[C@@H](NC(=O)[C@H](CO)NC(=O)[C@H](CC(C)C)NC(=O)[C@H](CC(=O)O)NC(=O)[C@H](CO)NC(=O)[C@@H](NC(=O)[C@](C)(Cc1ccccc1)NC(=O)[C@@H](NC(=O)CNC(=O)[C@H](CCC(=O)O)NC(=O)C(C)(C)NC(=O)[C@@H](N)Cc1ccc(O)cc1)[C@@H](C)O)[C@@H](C)O)[C@@H](C)CC)[C@@H](C)CC)C(=O)N[C@@H](CCC(=O)O)C(=O)NCC(=O)NCC(=O)N1CCC[C@H]1C(=O)N[C@@H](CO)C(=O)N[C@@H](CO)C(=O)NCC(=O)N[C@@H](C)C(=O)N1CCC[C@H]1C(=O)N1CCC[C@H]1C(=O)N1CCC[C@H]1C(=O)N[C@@H](CO)C(N)=O [Example 129] (H-Y[Aib]EGT[αMeF]TSDLSILLDKK([AEEA-AEEA-γGlu-C20 diacid])AQ[Aib]AFIEYLIEGGPSSGAPPPS-NH2) | 0.106 | 14.9 | 1 | 0.121 | 0.0278
CC[C@H](C)[C@H](NC(=O)[C@H](CC(C)C)NC(=O)[C@H](Cc1ccc(O)cc1)NC(=O)[C@H](CCC(=O)O)NC(=O)[C@@H](NC(=O)[C@H](Cc1ccccc1)NC(=O)[C@H](C)NC(=O)C(C)(C)NC(=O)[C@H](CCC(N)=O)NC(=O)[C@H](C)NC(=O)[C@H](CCCCNC(=O)COCCOCCNC(=O)COCCOCCNC(=O)CC[C@H](NC(=O)CCCCCCCCCCCCCCCCCCC(=O)O)C(=O)O)NC(=O)[C@H](CCCCN)NC(=O)[C@H](CC(=O)O)NC(=O)[C@H](CC(C)C)NC(=O)[C@H](CC(C)C)NC(=O)[C@@H](NC(=O)[C@H](CO)NC(=O)[C@H](CCC(=O)O)NC(=O)[C@H](CC(=O)O)NC(=O)[C@H](CO)NC(=O)[C@@H](NC(=O)[C@](C)(Cc1ccccc1)NC(=O)[C@@H](NC(=O)CNC(=O)[C@H](CCC(=O)O)NC(=O)C(C)(C)NC(=O)[C@@H](N)Cc1ccc(O)cc1)[C@@H](C)O)[C@@H](C)O)[C@@H](C)CC)[C@@H](C)CC)C(=O)N[C@@H](CCC(=O)O)C(=O)NCC(=O)NCC(=O)N1CCC[C@H]1C(=O)N[C@@H](CO)C(=O)N[C@@H](CO)C(=O)NCC(=O)N[C@@H](C)C(=O)N1CCC[C@H]1C(=O)N1CCC[C@H]1C(=O)N1CCC[C@H]1C(=O)N[C@@H](CO)C(N)=O [Example 130] (H-Y[Aib]EGT[αMeF]TSDESILLDKK([AEEA-AEEA-γGlu-C20 diacid])AQ[Aib]AFIEYLIEGGPSSGAPPPS-NH2; N-terminus assumed) | 1.55 | > 1060 | 3.66 | 0.368 | 0.177
CC[C@H](C)[C@H](NC(=O)[C@H](CC(C)C)NC(=O)[C@H](Cc1ccc(O)cc1)NC(=O)[C@H](CCC(=O)O)NC(=O)[C@@H](NC(=O)[C@H](Cc1ccccc1)NC(=O)[C@H](C)NC(=O)C(C)(C)NC(=O)[C@H](CCC(N)=O)NC(=O)[C@H](C)NC(=O)[C@H](CCCCNC(=O)COCCOCCNC(=O)COCCOCCNC(=O)CC[C@H](NC(=O)CCCCCCCCCCCCCCCCCCC(=O)O)C(=O)O)NC(=O)[C@H](CCC(=O)O)NC(=O)[C@H](CC(=O)O)NC(=O)[C@H](CC(C)C)NC(=O)C(C)(C)NC(=O)[C@@H](NC(=O)[C@H](CO)NC(=O)[C@H](Cc1ccc(O)cc1)NC(=O)[C@H](CC(=O)O)NC(=O)[C@H](CO)NC(=O)[C@@H](NC(=O)[C@](C)(Cc1ccccc1)NC(=O)[C@@H](NC(=O)CNC(=O)[C@H](CCC(=O)O)NC(=O)C(C)(C)NC(=O)CCc1ccc(O)cc1)[C@@H](C)O)[C@@H](C)O)[C@@H](C)CC)[C@@H](C)CC)C(=O)N[C@@H](CCC(=O)O)C(=O)NCC(=O)NCC(=O)N1CCC[C@H]1C(=O)N[C@@H](CO)C(=O)N[C@@H](CO)C(=O)NCC(=O)N[C@@H](C)C(=O)N1CCC[C@H]1C(=O)N1CCC[C@H]1C(=O)N1CCC[C@H]1C(=O)N[C@@H](CO)C(N)=O [Example 133] (Desaminotyrosyl-[Aib]EGT[αMeF]TSDYSI[Aib]LDEK([AEEA-AEEA-γGlu-C20 diacid])AQ[Aib]AFIEYLIEGGPSSGAPPPS-NH2) | 0.0879 | 216 | 11.4 | 0.0436 | 0.157
CC[C@H](C)[C@H](NC(=O)[C@H](CC(C)C)NC(=O)[C@H](Cc1ccc(O)cc1)NC(=O)[C@H](CCC(=O)O)NC(=O)[C@@H](NC(=O)[C@H](Cc1ccccc1)NC(=O)[C@H](C)NC(=O)C(C)(C)NC(=O)[C@H](CCC(N)=O)NC(=O)[C@H](C)NC(=O)[C@H](CCCCNC(=O)COCCOCCNC(=O)COCCOCCNC(=O)CC[C@H](NC(=O)CCCCCCCCCCCCCCCCCCC(=O)O)C(=O)O)NC(=O)[C@H](CCCCN)NC(=O)[C@H](CC(=O)O)NC(=O)[C@H](CC(C)C)NC(=O)[C@H](CC(C)C)NC(=O)[C@@H](NC(=O)[C@H](CO)NC(=O)[C@H](Cc1ccc(O)cc1)NC(=O)[C@H](CC(=O)O)NC(=O)[C@H](CO)NC(=O)[C@@H](NC(=O)[C@H](Cc1ccccc1)NC(=O)[C@@H](NC(=O)CNC(=O)[C@H](CC(N)=O)NC(=O)C(C)(C)NC(=O)[C@@H](N)Cc1c[nH]cn1)[C@@H](C)O)[C@@H](C)O)[C@@H](C)CC)[C@@H](C)CC)C(=O)N[C@@H](CCC(=O)O)C(=O)NCC(=O)NCC(=O)N1CCC[C@H]1C(=O)N[C@@H](CO)C(=O)N[C@@H](CO)C(=O)NCC(=O)N[C@@H](C)C(=O)N1CCC[C@H]1C(=O)N1CCC[C@H]1C(=O)N1CCC[C@H]1C(=O)N[C@@H](CO)C(N)=O [Example 135] (H-H[Aib]NGTFTSDYSILLDKK([AEEA-AEEA-γGlu-C20 diacid])AQ[Aib]AFIEYLIEGGPSSGAPPPS-NH2) | 0.373 | 454 | 3.01 | 0.131 | 0.161
